Like-named read-outs stand apart in the source and are kept apart here.
Legend:
[1] = molecular target: T1, Rat recombinant PDE10A (rPDE10A2) (Rattus norvegicus, UniProt Q9QYJ6); test: In vitro assay PDE10A (SPA, 3H-cAMP); type: biochemical
T1 construct: inferred from the Ni metal chelate purification; made in house; host or cells: Sf9 insect cells (baculovirus)
T1 sequence (Q9QYJ6 1-794): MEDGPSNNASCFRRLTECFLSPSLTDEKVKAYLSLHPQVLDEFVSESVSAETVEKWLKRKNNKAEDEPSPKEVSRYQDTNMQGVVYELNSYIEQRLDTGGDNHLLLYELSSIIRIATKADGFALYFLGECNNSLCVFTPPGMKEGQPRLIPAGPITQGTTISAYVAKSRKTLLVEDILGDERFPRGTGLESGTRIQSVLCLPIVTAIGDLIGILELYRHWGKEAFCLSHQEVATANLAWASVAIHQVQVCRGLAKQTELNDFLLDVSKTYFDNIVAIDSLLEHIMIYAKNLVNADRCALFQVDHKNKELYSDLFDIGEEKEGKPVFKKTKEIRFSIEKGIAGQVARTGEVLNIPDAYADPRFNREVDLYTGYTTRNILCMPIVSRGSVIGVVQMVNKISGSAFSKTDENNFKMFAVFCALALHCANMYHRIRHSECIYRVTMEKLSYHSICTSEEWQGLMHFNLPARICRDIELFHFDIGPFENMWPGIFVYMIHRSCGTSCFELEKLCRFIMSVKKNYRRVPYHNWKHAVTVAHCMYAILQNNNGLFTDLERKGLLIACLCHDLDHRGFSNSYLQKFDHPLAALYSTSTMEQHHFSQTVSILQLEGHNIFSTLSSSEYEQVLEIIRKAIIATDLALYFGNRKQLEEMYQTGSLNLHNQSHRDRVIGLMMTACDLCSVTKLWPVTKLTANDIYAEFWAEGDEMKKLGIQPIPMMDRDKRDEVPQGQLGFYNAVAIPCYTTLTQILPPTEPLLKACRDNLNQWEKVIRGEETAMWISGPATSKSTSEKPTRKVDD
Procedure, shortened: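 Rat PDE10A2 expressed in Sf9 cells and Ni-purified; incubated with 60 nM cAMP plus 0.008 μCi 3H-cAMP in 50 mM Tris pH 7.8, 8.3 mM MgCl2, 1.7 mM EGTA for 60 min at room temperature. Product quantified by scintillation proximity counting; final DMSO 1%.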

[2] = molecular target: other members of the PDE family (Homo sapiens, UniProt O00408); test: In vitro PDE selectivity assay (SPA), other members of the PDE family (protocols in Table A); type: biochemical; conditions: hPDE2A; read-out: PDE 2A (expressed as pIC50) (converted)
other members of the PDE family, sequence (O00408 whole entry): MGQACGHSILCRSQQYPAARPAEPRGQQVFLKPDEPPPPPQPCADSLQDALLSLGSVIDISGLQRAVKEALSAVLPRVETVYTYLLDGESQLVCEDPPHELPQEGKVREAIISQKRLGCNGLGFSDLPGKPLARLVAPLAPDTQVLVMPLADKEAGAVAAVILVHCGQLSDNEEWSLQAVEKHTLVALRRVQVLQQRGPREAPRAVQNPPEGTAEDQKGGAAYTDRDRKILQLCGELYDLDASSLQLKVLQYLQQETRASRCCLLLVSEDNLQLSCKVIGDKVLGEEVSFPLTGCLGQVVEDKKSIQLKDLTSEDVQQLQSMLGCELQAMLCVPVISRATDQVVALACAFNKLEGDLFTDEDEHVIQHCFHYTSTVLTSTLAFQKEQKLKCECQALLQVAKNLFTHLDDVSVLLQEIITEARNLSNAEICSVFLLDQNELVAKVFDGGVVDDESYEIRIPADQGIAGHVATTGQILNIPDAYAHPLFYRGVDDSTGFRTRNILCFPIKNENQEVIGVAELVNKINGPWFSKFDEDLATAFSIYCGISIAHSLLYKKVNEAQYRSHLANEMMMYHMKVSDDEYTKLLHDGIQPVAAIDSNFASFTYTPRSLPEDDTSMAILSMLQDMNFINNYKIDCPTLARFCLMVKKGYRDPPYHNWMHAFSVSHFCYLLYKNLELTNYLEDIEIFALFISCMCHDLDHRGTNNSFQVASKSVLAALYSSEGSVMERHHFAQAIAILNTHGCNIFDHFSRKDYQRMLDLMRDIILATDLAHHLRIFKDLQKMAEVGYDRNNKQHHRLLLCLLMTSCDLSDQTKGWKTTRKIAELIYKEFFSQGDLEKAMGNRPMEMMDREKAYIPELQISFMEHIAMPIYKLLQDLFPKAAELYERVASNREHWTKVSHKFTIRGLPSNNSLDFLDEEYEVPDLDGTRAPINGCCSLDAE
Protocol: Rat recombinant PDE10A (rPDE10A2) was expressed in Sf9 cells using a recombinant rPDE10A baculovirus construct. Cells were harvested after 48 h of infection and the rPDE10A protein was purified by metal chelate chromatography on Ni-sepharose 6FF. Tested compounds were dissolved and diluted in 100% DMSO to a concentration 100 fold of the final concentration in the assay. Compound dilutions (0.4 μl) were added in 384 well plates to 20 μl of incubation buffer (50 mM Tris pH 7.8, 8.3 mM MgCl2, 1.7 mM EGTA). 10 μl of rPDE10A enzyme in incubation buffer was added and the reaction was started by addition of 10 μl substrate to a final concentration of 60 nM cAMP and 0.008 μCi ^3H-cAMP. The reaction was incubated for 60 minutes at room temperature. After incubation, the reaction was stopped with 20 μl of stop solution consisting of 17.8 mg/ml PDE SPA (scintillation proximity assay) beads. After sedimentation of the beads during 30 minutes the radioactivity was measured in a Perkin Elmer Topcount scintillation counter and results were expressed as cpm. For blanc values the enzyme was omitted from the reaction and replaced by incubation buffer. Control values were obtained by addition of a final concentration of 1% DMSO instead of compound. The same assay principle is applied for the measurement of the affinity of the compound for other members of the PDE family with appropriate modifications in incubation buffer, substrate concentration, incubation time and stop solution. An overview of the different protocols is presented in table A. A best fit curve is fitted by a minimum sum of squares method to the plot of % of control value substracted with blanc value versus compound concentration and the half maximal inhibitory concentration (IC50) value is derived from this curve.
The compounds of the invention are generally selective for PDE10 compared to other PDEs and there are a few that also have affinity for PDE1B1, 4D3 and 5A3.

[3] = test system: apomorphine-induced stereotypy in rats; test: Apomorphine-induced stereotypy in rats (APO); type: in vivo; conditions: Rattus norvegicus, n.d.: found not active at threshold dose 2.5 mg/kg or 10 mg/kg (a)
Protocol: Apomorphine (1.0 mg/kg, i.v.)-induced stereotypy (compulsive sniffing, licking, chewing) was scored every 5 min over the first hour after injection of apomorphine, following a 1 hour interval pre-treatment with the test compound. The score system was: (3) pronounced, (2) moderate, (1) slight, and (0) absent.

[4] = Table 4 in vitro selectivity, read-out: PDE 10A2 (expressed as pIC50) (converted)
[5] = pIC50 corresponds to the −log IC50 expressed in mol/L, read-out: PDE10A2 pIC50 (converted)
[6] = po, * not soluble, tested orally as a suspension

Row | IC50 [1, 4] | IC50 [1, 5] | IC50 [2] | Structure (SMILES) | ED50 ([3]; not further tested) | ED50 [3, 6]
1 | 0.427 µM | 0.427 µM | > 10 µM | COCCc1ccc(-c2cnc3c(-c4ccncc4)ccnn23)cn1 [compound 57, 3-[6-(2-methoxyethyl)-3-pyridinyl]-8-(4-pyridinyl)-imidazo[1,2-b]pyridazine] | – | –
2 | 0.589 µM | 0.589 µM | > 10 µM | COCCOc1ccc(-c2c(C3CC3)nc3c(N4CCOCC4)cc(C)nn23)cn1 [compound 74, 2-cyclopropyl-3-[6-(2-methoxyethoxy)-3-pyridinyl]-6-methyl-8-(4-morpholinyl)-imidazo[1,2-b]pyridazine] | – | –
3 | 0.447 µM | 0.447 µM | > 10 µM | Cc1cc(N2CCOCC2)c2nc(C3CC3)c(-c3ccc(N4CCOCC4)nc3)n2n1 [compound 75, 2-cyclopropyl-6-methyl-8-(4-morpholinyl)-3-[6-(4-morpholinyl)-3-pyridinyl]-imidazo[1,2-b]pyridazine] | – | –
4 | 0.372 µM | 0.372 µM | > 10 µM | CCc1ccc(-c2c(C3CC3)nc3c(N4CCOCC4)cc(C)nn23)cn1 [compound 84, 2-cyclopropyl-3-(6-ethyl-3-pyridinyl)-6-methyl-8-(4-morpholinyl)-imidazo[1,2-b]pyridazine] | – | –
5 | 0.661 µM | 0.661 µM | > 10 µM | COCCc1ccc(-c2c(C3CC3)nc3c(N4CCOCC4)cc(C(F)(F)F)nn23)cn1 [compound 85, 2-cyclopropyl-3-[6-(2-methoxyethyl)-3-pyridinyl]-8-(4-morpholinyl)-6-(trifluoromethyl)-imidazo[1,2-b]pyridazine] | – | –
6 | 0.38 µM | 0.38 µM | > 10 µM | Cc1nc2c(N3CCOCC3)cc(C3CC3)nn2c1-c1ccc(N2CCOCC2)nc1 [compound 94, 6-cyclopropyl-2-methyl-8-(4-morpholinyl)-3-[6-(4-morpholinyl)-3-pyridinyl]-imidazo[1,2-b]pyridazine] | – | –
7 | 0.724 µM | 0.724 µM | > 10 µM | Cc1cc(N2CCOCC2)c2nc(C3CC3)c(-c3ccc(N4CCNCC4)nc3)n2n1 [compound 100, 2-cyclopropyl-6-methyl-8-(4-morpholinyl)-3-[6-(1-piperazinyl)-3-pyridinyl]-imidazo[1,2-b]pyridazine] | – | –
8 | – | 0.269 µM | – | CCc1ccc(-c2c(C)nc3c(N4CCOCC4)cc(C4CC4)nn23)cn1 [compound 107, 6-cyclopropyl-3-(6-ethyl-3-pyridinyl)-2-methyl-8-(4-morpholinyl)-imidazo[1,2-b]pyridazine] | > 2.5 mg/kg | –
9 | – | 0.155 µM | – | CCc1ccc(-c2c(C)nc3c(N4CCOCC4)cc(C)nn23)cn1 [compound 108, 3-(6-ethyl-3-pyridinyl)-2,6-dimethyl-8-(4-morpholinyl)-imidazo[1,2-b]pyridazine] | > 2.5 mg/kg | –
10 | – | 0.251 µM | – | CCc1ccc(-c2cnc3c(N4CCOCC4)ccnn23)cn1 [compound 109, 3-(6-ethyl-3-pyridinyl)-8-(4-morpholinyl)-imidazo[1,2-b]pyridazine] | > 2.5 mg/kg | –
11 | – | 0.0977 µM | – | Cc1nc2c(-c3ccncc3)ccnn2c1-c1ccc(C2CC2)nc1 [compound 111, 3-(6-cyclopropyl-3-pyridinyl)-2-methyl-8-(4-pyridinyl)-imidazo[1,2-b]pyridazine] | > 2.5 mg/kg | –
12 | – | 0.158 µM | – | CO[C@H]1CCN(c2ccc(-c3c(C)nc4c(N5CCOCC5)ccnn34)cn2)C1 [compound 113, 3-[6-[(3S)-3-methoxy-1-pyrrolidinyl]-3-pyridinyl]-2-methyl-8-(4-morpholinyl)-imidazo[1,2-b]pyridazine] | > 2.5 mg/kg | –
13 | – | 0.0355 µM | – | Cc1nc2c(N3CCOCC3)ccnn2c1-c1cnn(Cc2cccnc2)c1 [compound 115, 2-methyl-8-(4-morpholinyl)-3-[1-(3-pyridinylmethyl)-1H-pyrazol-4-yl]-imidazo[1,2-b]pyridazine] | – | > 10 mg/kg
14 | – | 0.132 µM | – | Cc1nc2c(N3CCOCC3)ccnn2c1-c1cn[nH]c1 [compound 116, 2-methyl-8-(4-morpholinyl)-3-(1H-pyrazol-4-yl)-imidazo[1,2-b]pyridazine] | – | > 10 mg/kg
15 | – | 0.0617 µM | – | COCCn1cc(-c2c(C3CC3)nc3c(N4CCOCC4)ccnn23)cn1 [compound 119, 2-cyclopropyl-3-[1-(2-methoxyethyl)-1H-pyrazol-4-yl]-8-(4-morpholinyl)-imidazo[1,2-b]pyridazine] | – | > 10 mg/kg
16 | – | 0.692 µM | – | COCCn1cc(-c2c(C(C)C)nc3c(N4CCOCC4)ccnn23)cn1 [compound 120, 3-[1-(2-methoxyethyl)-1H-pyrazol-4-yl]-2-(1-methylethyl)-8-(4-morpholinyl)-imidazo[1,2-b]pyridazine] | > 10 mg/kg | –
17 | – | 0.0302 µM | – | COCCn1cc(-c2c(C(F)(F)F)nc3c(-c4ccncc4)ccnn23)cn1 [compound 122, 3-[1-(2-methoxyethyl)-1H-pyrazol-4-yl]-8-(4-pyridinyl)-2-(trifluoromethyl)-imidazo[1,2-b]pyridazine] | > 2.5 mg/kg | –
18 | – | 0.0275 µM | – | COC(C)(C)Cn1cc(-c2c(C)nc3c(-c4ccncc4)ccnn23)cn1 [compound 123, 3-[1-(2-methoxy-2-methylpropyl)-1H-pyrazol-4-yl]-2-methyl-8-(4-pyridinyl)-imidazo[1,2-b]pyridazine] | > 2.5 mg/kg | –
19 | – | 0.0501 µM | – | COCCn1cc(-c2c(C)nc3c(-c4ccncc4)cc(C4CC4)nn23)cn1 [compound 126, 6-cyclopropyl-3-[1-(2-methoxyethyl)-1H-pyrazol-4-yl]-2-methyl-8-(4-pyridinyl)-imidazo[1,2-b]pyridazine] | > 2.5 mg/kg | –
20 | – | 0.0692 µM | – | COCCn1cc(-c2c(C(F)(F)F)nc3c(N4CCOCC4)ccnn23)cn1 [compound 139, 3-[1-(2-methoxyethyl)-1H-pyrazol-4-yl]-8-(4-morpholinyl)-2-(trifluoromethyl)-imidazo[1,2-b]pyridazine] | – | > 2.5 mg/kg
21 | – | 0.01 µM | – | FC(F)(F)Cn1cc(-c2c(C3CC3)nc3c(-c4ccncc4)ccnn23)cn1 [compound 141, 2-cyclopropyl-8-(4-pyridinyl)-3-[1-(2,2,2-trifluoroethyl)-1H-pyrazol-4-yl]-imidazo[1,2-b]pyridazine] | – | > 2.5 mg/kg
22 | – | 0.0589 µM | – | COCCc1ccc(-c2c(C(F)(F)F)nc3c(N4CCOCC4)ccnn23)cn1 [compound 145, 3-[6-(2-methoxyethyl)-3-pyridinyl]-8-(4-morpholinyl)-2-(trifluoromethyl)-imidazo[1,2-b]pyridazine] | > 2.5 mg/kg | –
23 | – | 0.151 µM | – | COCCOc1cncc(-c2c(C)nc3c(-c4ccncc4)ccnn23)c1 [compound 149, 3-[5-(2-methoxyethoxy)-3-pyridinyl]-2-methyl-8-(4-pyridinyl)-imidazo[1,2-b]pyridazine] | > 2.5 mg/kg | –

— US20120220581A1, “IMIDAZO[1,2-b]PYRIDAZINE DERIVATIVES AND THEIR USE AS PDE10 INHIBITORS” (Janssen-Cilag, S.A., priority 2009, published 2012)
